In data set [1] the target is T1, E. coli TP (Escherichia coli, UniProt P07650).
T1 construct: purchased Sigma Aldrich T2807-1KU
As to the kind of experiment: In vitro E. coli thymidine phosphorylase inhibition, spectrophotometric assay at 290 nm. It is filed as biochemical. The settings on record: for inhibition at 15 µM: compound at 15 µM (maximum solubility); for IC50: 300 µM thymidine, pH 7.4, 25 °C; for inhibition at 50 µM: compound at 50 µM, average of three measurements. Here is the method: The adopted protocol is a modification of the original method developed by Khan[51]. TP activity and inhibition assays were based on the phosphorolysis of thymidine to thymine, this conversion results in a significant spectrophotometric decrease. At 290 nm and pH 7.4, thymidine has a higher extinction coefficient than thymine (Δε = −480 M^−1 cm^−1). The absorbance at 290 nm was measured every 2 min for 30 min in 96-well plates at 25 °C.
Thymidine was dissolved in buffer (3 mM). […] All experiments were conducted in triplicate.
The method reported by Khan et al.[51] has been adapted to a screening in 96-well plates (200 µL well, UV-Star® 96-well microplate, Greiner). Each well contained 160 µL of 50 mM KH2PO4 buffer (pH 7.4), 0.006 U of E. coli TP (T2807-1KU, Sigma Aldrich), and 20 µL of the tested compound solution. […] The decrease in absorbance due to conversion of thymidine to thymine was followed during 30 min (PowerWave HT Microplate Reader, Biotek) at 25 °C, with one measure every 2 min and a 30 s shaking before each measure.

A further data set is described as follows: physchem. Conditions: aqueous buffer, kinetic from dmso stock.
Data set [2] is described as follows: Solubility in the incubation medium. The settings on record: for Solubility (in words): incubation medium; for solubility: aqueous buffer, kinetic from dmso stock.
For data set [3], the target named is T1, E. coli TP. The data set can be described thus: Enzyme inhibition kinetic study (Lineweaver-Burk). It is filed as biochemical. The settings on record: for Km values in the presence of inhibitor / Vmax values in the presence of inhibitor: increasing inhibitor concentration; for Type of TP inhibition: thymidine as substrate, Lineweaver-Burk plots. The method, then: The percentage of TP inhibition was determined for different concentrations of the inhibitors and thymidine.
Figure 7. […] Results are presented as means ± SD; SD denoted by error bars (experiments carried out in triplicate).
The TP inhibiting activity at differents concentrations of compound 2d (0, 15, 20, 30 µM) and 2p (0, 4, 6, 8 µM) was evaluated in the presence of different concentrations of thymidine ([…]) in KH2PO4 buffer (pH 7.4).

The test system of data set [4] is epidermal carcinoma cells (A431). The data set can be described thus: Cell proliferation assay (MTT), A431. It is filed as cell-based. The settings on record: Homo sapiens, 72 h, read-out: Growth inhibition, A431. Here is the method:
(§1) The inhibitory effect on cell proliferation was assessed using MTT assay[53] after 72 h of treatment through dose-response assays performed in the 100 µM to 0.1 µM concentration range. The results were expressed as percentages of growth inhibition.
(§2) Cell viability was determined on HUVEC and A431 cell lines using 3–(4,5-dimethylthiazol-2-yl)-2,5-diphenyltetrazolium bromide (MTT; Sigma-Aldrich) assay[53] after treatment with compounds 2d and 2p. A total of 5 × 10^3 cells/well (A431 cell line) or 10^4 cells/well (HUVEC cell line) were plated in a 96-well plate and treated, in duplicates, with compounds 2d and 2p at five concentrations (0.1 µM, 1 μM, 10 μM, 50 μM, 100 μM) for 72 h. Absorbance was read at 570 nm using Labsystem Multiskan MS microplate reader. The results were expressed as percentages of growth inhibition compared to positive control cell growth (100%).

The subject of data set [5] is human umbilical vein endothelial cells (HUVEC). As to the kind of experiment: Cell proliferation assay (MTT), HUVEC. It is filed as cell-based. Conditions: 72 h, read-out: Growth inhibition, HUVEC. Here is the method:
as §1, §2

Data set [6] addresses T1, E. coli TP. As to the kind of experiment: Phosphate competition study. It is filed as biochemical. The settings on record: saturating thymidine, phosphate 2–30 mM, compound at its IC50. Here is the method: The synthesised compounds have been designed as TP inhibitors interacting with the thymidine fixation site. […] E. coli TP activity was determined in the presence of a saturating concentration of thymidine (equivalent to three times the value of the Michaelis-Menten constant [km][52]) and variable amounts of phosphate (2–30 mM). Tested compounds have been used at a concentration corresponding to the IC50.
For this study, the reaction mixture was composed of 160 µL of 10 mM Tris buffer (pH 7.4), 150 mM NaCl, 2 mM EDTA, 0.006 U of E. coli TP, different concentrations of KH2PO4 (2, 5, 10 and 30 mM). Compounds were tested at a concentration close to their IC50. The reaction was initiated by the addition of 20 µL of thymidine (3 mM and 10 mM solutions).

The next data set concerns hTP. Also noted: method as in PMID 27783978. The settings on record: cited from earlier work.

Converted amounts (≈) assume the structure as drawn. Structures can show the parent of a compound that is named as a salt.

Here are results for 12 compounds from paper PMC8725971, “Polycyclic nitrogen heterocycles as potential thymidine phosphorylase inhibitors: synthesis, biological evaluation, and molecular docking study” (Journal of Enzyme Inhibition and Medicinal Chemistry, 2021).

T1 sequence (P07650 whole entry): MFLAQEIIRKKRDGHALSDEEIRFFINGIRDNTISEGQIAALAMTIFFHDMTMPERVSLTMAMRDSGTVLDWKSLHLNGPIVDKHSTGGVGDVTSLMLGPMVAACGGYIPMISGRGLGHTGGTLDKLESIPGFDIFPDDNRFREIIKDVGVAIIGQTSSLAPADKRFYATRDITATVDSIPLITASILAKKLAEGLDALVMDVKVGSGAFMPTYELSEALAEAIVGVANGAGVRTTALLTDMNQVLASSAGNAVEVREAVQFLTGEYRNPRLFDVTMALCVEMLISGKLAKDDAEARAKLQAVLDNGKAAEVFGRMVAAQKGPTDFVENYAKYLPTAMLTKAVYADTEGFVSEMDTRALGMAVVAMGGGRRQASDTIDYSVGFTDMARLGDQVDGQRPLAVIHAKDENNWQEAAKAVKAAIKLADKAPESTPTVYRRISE

With `O=c1[nH]c(=O)c2cc3cc4c(cc3nc2[nH]1)OCO4` [Compound 2g], the inhibition at 15 µM against E. coli TP [1] (2.5% DMSO) was determined as 0%. The compound also returned a solubility in “physchem” of 15 µM (≈ 3.86 µg/mL). Besides, the “Solubility (in words)” value in [2] is on record as “sparingly soluble”.

On E. coli TP [1], `COc1ccc2cc3c(=O)[nH]c(=O)[nH]c3nc2c1` [Compound 2d] showed an IC50 of 28 µM. For the same compound, 50 µM produced 89% inhibition against E. coli TP [1] (2.5% DMSO). For the same compound, on E. coli TP [3], the “Km values in the presence of inhibitor” value is “increased”, the “Vmax values in the presence of inhibitor” value was “did not change significantly” and the “Type of TP inhibition” value is recorded as “competitive”. The inhibition at 50 µM in data set [4] (A-431, 50 µM) worked out at 57%. Also, the inhibition at 100 µM in [5] is 56%. The compound also registered a solubility in data set [2] of more than 50 µM.

With `O=C1c2cc3cc4c(cc3nc2C(=O)N1Cc1[nH]c(=O)[nH]c(=O)c1Br)OCO4` [Compound 23b, 2-[(5-Bromo-2,6-dioxo-1,2,3,6-tetrahydropyrimidin-4-yl)methyl]-6,7-methylenedioxy-1H-pyrrolo[3,4-b]quinoline-1,3(2H)-dione], the melting point was 370 to 372 °C (dec.). The compound further came in with an inhibition at 50 µM against E. coli TP [1] (2.5% DMSO) of 30%. Besides, the “Binding to the phosphate site” value at E. coli TP [6] is recorded as “did not bind to the phosphate site”. In [2], the concentration in solution (solubility) was 50 µM (≈ 22.3 µg/mL) and the “Solubility (in words)” value was “less soluble”.

`O=c1[nH]c(=O)c2cc3cc(Cl)c(Cl)cc3nc2[nH]1` [Compound 2l, 7,8-Dichloropyrimido[4,5-b]quinoline-2,4(1H,3H)-dione]: the melting point was more than 360 °C. At E. coli TP [1], this compound showed an IC50 of 42 µM. For the same compound, the inhibition at 50 µM at E. coli TP [1] (2.5% DMSO) is 71%. For the same compound, the solubility in [2] was more than 50 µM.

On to `O=c1[nH]c(=O)c2cc3ccc4ccccc4c3nc2[nH]1` [Compound 2n, Benzo[h]pyrimido[4,5-b]quinoline-8,10(9H,11H)-dione)], for which the melting point lay in the range of 326 to 328 °C. Moreover, 15 µM produced 0% inhibition on E. coli TP [1] (2.5% DMSO). In data set [2], the concentration in solution (solubility) came to 15 µM (≈ 3.95 µg/mL) and the “Solubility (in words)” value is recorded as “less soluble”.

`O=C1c2cc3cc4c(cc3nc2C(=O)N1CCCCn1cc(Br)c(=O)[nH]c1=O)OCO4` [Compound 16a, 2-[4-(5-Bromo-2,4-dioxo-3,4-dihydropyrimidine-1(2H)-yl)butyl]-6,7-methylenedioxy-2H-pyrrolo[3,4-b]quinoline-1,3-dione]: the melting point worked out at 276 °C. At E. coli TP [1] (compound at 25 µM (maximum solubility), 2.5% DMSO), this compound came in with an inhibition at 25 µM of 30%. For the same compound, in data set [2], the solubility was found to be 25 µM (≈ 12.2 µg/mL) and the “Solubility (in words)” value was “less soluble”.

On to `O=C1c2cc3cc4c(cc3nc2C(=O)N1Cc1cc(=O)[nH]c(=O)[nH]1)OCO4` [Compound 22, 2-[(2,6-Dioxo-1,2,3,6-tetrahydropyrimidin-4-yl)methyl]-6,7-methylenedioxy-1H-pyrrolo[3,4-b]quinoline-1,3(2H)-dione], for which the melting point was 407 to 409 °C (dec.). For the same compound, on E. coli TP [1] (2.5% DMSO), at 15 µM the inhibition was 25%. Besides, in data set [2], the concentration in solution (solubility) was 15 µM (≈ 5.49 µg/mL) and the “Solubility (in words)” value is reported as “less soluble”.

For the compound `CN(C)c1c2cc3c(cc2nc2[nH]c(=O)[nH]c(=O)c12)OCO3` [Compound 2s, 5-Dimethylamino-7,8-methylenedioxypyrimido[4,5-b]quinoline-2,4(1H,3H)-dione], the melting point turned out to be 348 °C. The inhibition at 15 µM against E. coli TP [1] (2.5% DMSO) was found to be 0%. Moreover, the concentration in solution in [2] (solubility) was 15 µM (≈ 4.5 µg/mL).

As to `COc1ccc2c(C)c3c(=O)[nH]c(=O)[nH]c3nc2c1` [Compound 2p], the IC50 at E. coli TP [1] was 26 µM. At E. coli TP [1] (2.5% DMSO), this compound yielded an inhibition at 50 µM of 67%. Also, at E. coli TP [6], the “Binding to the phosphate site” value was “did not bind to the phosphate site”. Also, on E. coli TP [3], the “Km values in the presence of inhibitor” value is “increased”, the “Vmax values in the presence of inhibitor” value was “did not change significantly” and the “Type of TP inhibition” value is recorded as “competitive”. Also, in [4] (A-431, 100 µM), the inhibition at 100 µM was 50%. Further, in [5], the inhibition at 100 µM was 31%. The solubility in [2] is more than 50 µM.

In turn, `O=C1c2cc3c(=O)[nH]c(=O)[nH]c3nc2C(=O)N1Cc1ccccc1` [Compound 28a] yielded an IC50 against E. coli TP [1] of 62 µM. Also, the inhibition at 50 µM against E. coli TP [1] (2.5% DMSO) was 44%. The “Binding to the phosphate site” value at E. coli TP [6] is recorded as “did not bind to the phosphate site”. In addition, the solubility in data set [2] was more than 50 µM.

In the case of `N=C1CCCN1Cc1[nH]c(=O)[nH]c(=O)c1Cl` [TPI, 5-chloro-6-[1-(2-iminopyrrolidinyl)methyl]uracil hydrochloride], the IC50 in the data set with hTP was 0.035 µM.

On to `O=C(NCc1cc(=O)[nH]c(=O)[nH]1)c1cc2c(=O)[nH]c(=O)[nH]c2nc1C(=O)NCc1cc(=O)[nH]c(=O)[nH]1` [Compound 30, N^6,N^7-Bis((2,6-dioxo-1,2,3,6-tetrahydropyrimidin-4-yl)methyl)-2,4-dioxo-1,2,3,4-tetrahydropyrido[2,3-d]pyrimidine-6,7-dicarboxamide], for which the melting point was 259 to 261 °C (dec.). Also, at E. coli TP [1], the IC50 worked out at 87 µM. The inhibition at 50 µM against E. coli TP [1] (2.5% DMSO) is 31%. Also, the “Binding to the phosphate site” value at E. coli TP [6] is listed as “did not bind to the phosphate site”. This compound also registered a solubility in [2] of more than 50 µM.
